The data set can be described thus: excess molar enthalpy (molar enthalpy of mixing); xn = mol fraction of the nth substance listed. Particulars: 298.15 K, 101 kPa, Liquid, Calvet calorimetry.

Numbers after ± are expanded uncertainties.

For `CCn1cc[n+](C)c1.COP(=O)([O-])OC` [1-ethyl-3-methylimidazolium dimethylphosphate] + CCO, the excess molar enthalpy was -0.311 ± 0.00406 kcal/mol (x1 = 0.1), -0.5184 ± 0.00478 kcal/mol (x1 = 0.2), -0.6726 ± 0.0055 kcal/mol (x1 = 0.4) and -0.4333 ± 0.00406 kcal/mol (x1 = 0.7).
On to `CCn1cc[n+](C)c1.COP(=O)([O-])OC` [1-ethyl-3-methylimidazolium dimethylphosphate] + CO, for which the excess molar enthalpy is, setting by setting: (x1 = 0.2) -0.6728 ± 0.0055 kcal/mol; (x1 = 0.4) -0.8537 ± 0.00669 kcal/mol; (x1 = 0.7) -0.5566 ± 0.00478 kcal/mol.
Turning to `CCn1cc[n+](C)c1.COP(=O)([O-])OC` [1-ethyl-3-methylimidazolium dimethylphosphate] + O, the excess molar enthalpy runs as follows: (x1 = 0.1) -0.881 ± 0.00813 kcal/mol; (x1 = 0.2) -1.3 ± 0.0105 kcal/mol; (x1 = 0.4) -1.463 ± 0.0115 kcal/mol; (x1 = 0.5) -1.381 ± 0.011 kcal/mol; (x1 = 0.7) -1.008 ± 0.00813 kcal/mol.
As for `OCCOCCO` [diethylene glycol] + O, the excess molar enthalpy reads like this: (x1 = 0.2) -0.291 ± 0.00335 kcal/mol; (x1 = 0.401) -0.291 ± 0.00335 kcal/mol; (x1 = 0.501) -0.275 ± 0.00311 kcal/mol; (x1 = 0.804) -0.111 ± 0.00263 kcal/mol.

The record behind these values is the NIST ThermoML archive (doi:10.1021/je400158p).
